# Test results from ChEMBL document CHEMBL4184295, “7α,15-Dihydroxydehydroabietic acid from Pinus koraiensis inhibits the promotion of angiogenesis through downregulation of VEGF, p-Akt and p-ERK in HUVECs” (Bioorg Med Chem Lett, 2018).
# Columns and labels:
# HUVEC [1] = assay: Cytotoxicity against HUVEC assessed as reduction in cell viability up to 100 uM after 24 hrs by MTT assay; assay type: cell-based; conditions: human
# HUVEC [2] = assay: Antiangiogenic activity against HUVEC assessed as reduction in tube formation at 100 uM after 24 hrs by matrigel-based light microscopic analysis relative to control; assay type: functional, Homo sapiens; set-up: scale not given: the % may be the effect or the level left
# HUVEC [3] = assay: Antiangiogenic activity against HUVEC assessed as reduction in tube formation at 12.5 uM after 24 hrs by matrigel-based light microscopic analysis relative to control; assay type: functional, Homo sapiens; set-up: scale not given: the % may be the effect or the level left
# HUVEC [4] = assay: Inhibition of ERK phosphorylation in HUVEC at 6.25 uM after 24 hrs by Western blot analysis relative to control; assay type: cell-based; conditions: Homo sapiens
# [5] = target: RAC-alpha serine/threonine-protein kinase (Homo sapiens) (UniProt P31749); assay: Inhibition of AKT phosphorylation in HUVEC at 6.25 uM after 24 hrs by Western blot analysis relative to control; assay type: cell-based
# HUVEC [6] = assay: Inhibition of ERK phosphorylation in HUVEC at 3.125 uM after 24 hrs by Western blot analysis relative to control; assay type: cell-based; conditions: Homo sapiens
# HUVEC [7] = assay: Down regulation of VEGF expression in HUVEC at 3.125 uM after 24 hrs by Western blot analysis relative to control; assay type: functional, Homo sapiens
# HUVEC [8] = assay: Antiangiogenic activity against HUVEC assessed as reduction in tube formation at 6.25 uM after 24 hrs by matrigel-based light microscopic analysis relative to control; assay type: functional, Homo sapiens; set-up: scale not given: the % may be the effect or the level left
# [9] = target: RAC-alpha serine/threonine-protein kinase (Homo sapiens) (UniProt P31749); assay: Inhibition of AKT phosphorylation in HUVEC at 3.125 uM after 24 hrs by Western blot analysis relative to control; assay type: cell-based
# HUVEC [10] = assay: Down regulation of VEGF expression in HUVEC at 6.25 uM after 24 hrs by Western blot analysis relative to control; assay type: functional, Homo sapiens
# RAC-alpha serine/threonine-protein kinase (Homo sapiens), sequence (P31749 whole entry): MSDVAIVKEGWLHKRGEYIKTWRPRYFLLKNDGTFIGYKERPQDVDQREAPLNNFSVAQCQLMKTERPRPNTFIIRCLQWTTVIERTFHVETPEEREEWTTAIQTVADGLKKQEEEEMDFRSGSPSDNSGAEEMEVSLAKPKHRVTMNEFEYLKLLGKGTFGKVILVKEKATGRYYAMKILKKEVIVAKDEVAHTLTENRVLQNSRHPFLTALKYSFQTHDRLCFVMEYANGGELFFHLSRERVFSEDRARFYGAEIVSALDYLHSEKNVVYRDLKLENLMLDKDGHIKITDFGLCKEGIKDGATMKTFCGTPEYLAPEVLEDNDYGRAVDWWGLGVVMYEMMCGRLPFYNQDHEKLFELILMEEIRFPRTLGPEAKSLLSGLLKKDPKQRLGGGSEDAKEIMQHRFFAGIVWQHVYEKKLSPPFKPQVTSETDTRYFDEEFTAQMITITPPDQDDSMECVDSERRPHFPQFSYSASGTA
smiles,measurement,setting,value
CC(C)(O)c1ccc2c(c1)[C@@H](O)C[C@H]1[C@](C)(C(=O)O)CCC[C@]21C,Activity,HUVEC [1],Non-Toxic
same,Activity,HUVEC [2],8.95%
O=C(O)c1ccc(O)cc1 [PARABEN],Activity,HUVEC [1],Non-Toxic
CC(C)(O)c1ccc2c(c1)C(=O)C[C@H]1[C@](C)(C(=O)O)CCC[C@]21C,Activity,HUVEC [1],Non-Toxic
C=C1CC[C@@H]2[C@](C)(CCC[C@@]2(C)C(=O)O[C@@H]2O[C@H](CO)[C@@H](O)[C@H](O)[C@H]2O)[C@H]1CCC1=CCOC1=O,Activity,HUVEC [1],Toxic
CC1=CC[C@@H](C(C)(C)O)C[C@@H]1O,Activity,HUVEC [1],Non-Toxic
CC(C)c1ccc2c(c1)CC[C@H]1[C@](C)(C(=O)O)CCC[C@]21C [DEHYDROABIETIC ACID],Activity,HUVEC [1],Toxic
same,Activity,HUVEC [3],12.09%
C=C(C)[C@@H]1CC[C@](C)(O)[C@@H](O)C1,Activity,HUVEC [1],Toxic
CC(C)(O)c1ccc2c(c1)[C@H](O)C[C@H]1[C@](C)(C(=O)O)CCC[C@]21C,fold change (FC),HUVEC [4],0.82
same,fold change (FC),[5],0.68
same,fold change (FC),HUVEC [6],0.98
same,Activity,HUVEC [1],Toxic
same,fold change (FC),HUVEC [7],0.89
same,Activity,HUVEC [8],20.53%
same,fold change (FC),[9],1.1
same,fold change (FC),HUVEC [10],0.69
